Reference: patent publication US20170354639A1, “DITERPENOID DERIVATIVES AND METHODS OF USE THEREOF” (Biogen MA Inc., priority 2014, published 2017)

Molecular target: Nrf2-Keap1 (Homo sapiens, UniProt Q14145)
Experiment: DiscoveRx PathHunter Nrf2-Keap1 nuclear translocation functional assay (agonist format)
Format: cell-based
Details: in duplicate, agonist mode; for EC50: 10 concentrations, 3-fold serial dilutions, 30 μM top concentration, normalized to CDDO methyl ester and vehicle; for activation at 10 µM / % Activation @ 10 μM: single concentration of 10 μM, normalized to control ligand (CDDO methyl ester) and vehicle
Description: DiscoveRx PathHunter® Nrf2-Keap1 Functional Assay
DiscoveRx's Nrf2-Keapl translocation assay was used to profile compounds. Primary Screening was performed in duplicate at a single concentration of 10 μM and EC50 determinations were performed in duplicate at 10 concentrations with 3-fold serial dilutions at a 30 μM top concentration or an otherwise specified top concentration.
The PathHunter® Nuclear Translocation assay detects translocation of a target protein to, or from, the nucleus. In this system, Prolink™ (PK), a small enzyme fragment, is fused to the protein of interest and Enzyme Acceptor (EA) is localized in the nucleus. Activation of the signaling pathway induces the target protein to either transit into the nucleus, thus forcing complementation of the PK and EA fragments, or out of the nucleus, hindering complementation of the fragments.
Cell handling: PathHunter Pathway cell lines were expanded from freezer stocks according to standard procedures. 5000 cells were seeded in Cell Plating Reagent 0 (containing 1% FBS) to a total volume of 20 μL into white walled, 384-well microplates and incubated for the overnight prior to testing.
Agonist format: For Agonist determination, cells were incubated with sample to induce response. Dilution of sample stocks was performed to generate 100× sample in DMSO. Intermediate dilution of sample stocks was performed to generate 5× sample in assay buffer (Cell Plating Reagent 0 containing 1% FBS). 5 μL of 5× sample was added to cells and incubated at room temperature for 6 hours. Vehicle concentration was 1%.
Signal detection: Assay signal was generated through a single addition of 25 μL (100% v/v) of PathHunter Flash Detection reagent, followed by a one hour incubation at room temperature. Microplates were read following signal generation with a PerkinElmer Envision™ instrument for chemiluminescent signal detection.
Data analysis: Compound activity was analyzed using CBIS data analysis suite (ChemInnovation, CA). For agonist mode assays, percentage activity was calculated using the following formula: % Activity=100%×(mean RLU of test sample−mean RLU of vehicle control)/(mean MAX RLU control ligand−mean RLU of vehicle control). For EC50 determination, a control agonist dose response curve was generated in the Keap 1-Nrf2 biosensor assay, data was normalized to the maximal and minimal response observed in the presence of the control ligand and vehicle respectively. CDDO methyl ester was used as a control compound. Compounds were tested in the agonist mode of the assay and data was normalized to the maximal and minimal response observed in the presence of control ligand and vehicle.

Nrf2-Keap1, sequence (Q14145 whole entry): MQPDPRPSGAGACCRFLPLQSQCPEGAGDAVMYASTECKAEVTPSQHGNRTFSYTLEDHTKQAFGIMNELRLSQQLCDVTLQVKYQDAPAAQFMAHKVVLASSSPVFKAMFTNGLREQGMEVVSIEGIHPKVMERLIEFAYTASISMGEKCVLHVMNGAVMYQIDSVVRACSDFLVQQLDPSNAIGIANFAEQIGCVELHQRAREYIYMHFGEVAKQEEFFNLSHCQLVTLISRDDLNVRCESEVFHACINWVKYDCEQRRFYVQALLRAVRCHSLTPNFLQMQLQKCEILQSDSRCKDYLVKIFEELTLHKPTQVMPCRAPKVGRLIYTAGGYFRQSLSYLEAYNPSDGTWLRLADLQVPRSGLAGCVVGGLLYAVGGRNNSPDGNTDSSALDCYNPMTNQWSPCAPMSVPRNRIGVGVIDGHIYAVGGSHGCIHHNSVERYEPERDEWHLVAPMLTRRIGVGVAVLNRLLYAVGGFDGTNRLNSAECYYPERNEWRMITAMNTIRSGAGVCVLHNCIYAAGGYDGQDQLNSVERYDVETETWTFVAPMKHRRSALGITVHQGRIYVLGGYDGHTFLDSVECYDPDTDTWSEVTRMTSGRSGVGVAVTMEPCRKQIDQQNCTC

| EC50 | activation at 10 µM (6 h) | SMILES | other results |
| --- | --- | --- | --- |
| < 500 nM | > 100% | CC1=CC[C@@H]2[C@@H](C)[C@H](O)CC[C@@]2(C)[C@@H]1C/C=C1/C(=O)OC[C@H]1O [Example 3, (S,E)-4-hydroxy-3-(2-((1R,4aR,5R,6R,8aR)-6-hydroxy-2,5,8a-trimethyl-1,4,4a,5,6,7,8,8a-octahydronaphthalen-1-yl)ethylidene)dihydrofuran-2(3H)-one] |  |
|  | 30 to 50% | CC1(C)CCC[C@@]2(C)[C@H]1CCC1(CC1)[C@@H]2CC/C=C1/C(=O)OC[C@H]1NC=O [Example 33, N-((S,E)-5-oxo-4-(3-((1′S,4a′S,8a′S)-5′,5′,8a′-trimethyloctahydro-1′H-spiro[cyclopropane-1,2′-naphthalen]-1′-yl)propylidene)tetrahydrofuran-3-yl)formamide] |  |
|  |  | C=C1CC[C@@H]2[C@]3(C)COCO[C@@H]3CC[C@@]2(C)[C@@H]1C/C=C1/C(=O)OCC1NC=O (single isomer, unassigned) [Example 39B] | % Activation @ 10 μM (6 hours): B (B: 51 to 100%) |
| 500 to 2000 nM |  | C=C1CC[C@@H]2[C@@H](C)[C@@](O)(C(F)(F)F)CC[C@@]2(C)[C@@H]1C/C=C1/C(=O)OCC1NC=O (single isomer, unassigned) [Example 43A] |  |
| 500 to 2000 nM | 51 to 100% | C=C1CC[C@H]2[C@@](C)(CC[C@@]3(C)OS(=O)OC[C@@]23C)[C@@H]1C/C=C1/C(=O)OCC1NC=O (stereo partly drawn) [Example 22, N-((E)-5-oxo-4-(2-((4aR,6aS,7R,10aS,10bR)-4a,6a,10b-trimethyl-8-methylene-3-oxidodecahydro-1H-naphtho[2,1-d][1,3,2]dioxathiin-7-yl)ethylidene)tetrahydrofuran-3-yl)formamide] |  |
|  | 30 to 50% | CC1(C)CCC[C@@]2(C)[C@H]1CCC1(CC1)[C@@H]2CC/C=C1\C(=O)OC[C@H]1NS(C)(=O)=O [Example 38, N—((S,Z)-5-oxo-4-(3-((1′S,4a′S,8a′S)-5′,5′,8a′-trimethyloctahydro-1′H-spiro[cyclopropane-1,2′-naphthalen]-1′-yl)propylidene)tetrahydrofuran-3-yl)methanesulfonamide] |  |
| > 2000 nM | 51 to 100% | CC(=O)N[C@@H]1COC(=O)/C1=C\CC[C@H]1C2(CC[C@H]3C(C)(C)CCC[C@@]31C)CC2 [Example 36, N—((S,Z)-5-oxo-4-(3-((1′S,4a′S,8a′S)-5′,5′,8a′-trimethyloctahydro-1′H-spiro[cyclopropane-1,2′-naphthalen]-1′-yl)propylidene)tetrahydrofuran-3-yl)acetamide] |  |
| 500 to 2000 nM |  | C=C1CC[C@@H]2[C@]3(C)COCO[C@@H]3CC[C@@]2(C)[C@@H]1C/C=C1/C(=O)OCC1NC=O (single isomer, unassigned) [Example 39A] | % Activation @ 10 μM (6 hours): A (A: >100%) |
|  | 51 to 100% | C=C1CC[C@@H]2[C@]3(C)CO[S@](=O)O[C@@H]3CC[C@@]2(C)[C@@H]1C/C=C1/C(=O)OC[C@@H]1O [Example 10, (R,E)-3-(2-((3S,4aR,6aS,7 R,10aS,10bR)-6a,10b-dimethyl-8-methylene-3-oxidodecahydro-1H-naphtho[2,1-d][1,3,2]dioxathiin-7-yl)ethylidene)-4-hydroxydihydrofuran-2(3H)-one] |  |
| < 500 nM | > 100% | C=C1CC[C@@H]2[C@@H](C)[C@H](OC)CC[C@@]2(C)[C@@H]1C/C=C1/C(=O)OC[C@H]1O [Example 16, (S,E)-4-hydroxy-3-(2-((1R,4aR,5R,6R,8aR)-6-methoxy-5,8a-dimethyl-2-methylenedecahydronaphthalen-1-yl)ethylidene)dihydrofuran-2(3H)-one] |  |
|  |  | C=C1CC[C@@H]2[C@]3(C)COS(=O)O[C@@H]3CC[C@@]2(C)[C@@H]1C/C=C1/C(=O)OCC1NC(=O)COC (stereo partly drawn) [Example 40A, N-((E)-4-(2-((4aR,6aS,7R,10aS,10bR)-6a,10b-dimethyl-8-methylene-3-oxidodecahydro-1H-naphtho[2,1-d][1,3,2]dioxathiin-7-yl)ethylidene)-5-oxotetrahydrofuran-3-yl)-2-methoxyacetamide] | activation at 10 µM (6 hours): 51 to 100% |
| > 2000 nM |  | CC1=CC[C@@H]2[C@@H](C)[C@@](O)(C(F)(F)F)CC[C@@]2(C)[C@@H]1C/C=C1/C(=O)OC[C@H]1O [Example 48, (S,E)-4-hydroxy-3-(2-((1R,4aR,5R,6R,8aR)-6-hydroxy-2,5,8a-trimethyl-6-(trifluoromethyl)-1,4,4a,5,6,7,8,8a-octahydronaphthalen-1-yl)ethylidene)dihydrofuran-2(3H)-one] |  |
| > 2000 nM |  | C=C1CC[C@@H]2[C@]3(C)COS(=O)O[C@@H]3CC[C@@]2(C)[C@@H]1C/C=C1/C(=O)OCC1NC(=O)CO (single isomer, unassigned) [Example 41A] |  |
| 500 to 2000 nM | > 100% | C=C1CC[C@H]2[C@@](C)(CC[C@@]3(C)O[S@@](=O)OC[C@@]23C)[C@@H]1C/C=C1/C(=O)OC[C@H]1O [Example 13, (S,E)-4-hydroxy-3-(2-((3S,4aR,6aS,7R,10aS,10bR)-4a,6a,10b-trimethyl-8-methylene-3-oxidodecahydro-1H-naphtho[2,1-d][1,3,2]dioxathiin-7-yl)ethylidene)dihydrofuran-2(3H)-one] |  |
|  | 51 to 100% | CC1(C)CCC[C@@]2(C)[C@H]1CCC1(CC1)[C@@H]2C/C=C1\C(=O)OCC1O (stereo partly drawn) [Example 23, (Z)-4-hydroxy-3-(2-((1′S,4a′S,8a′S)-5′,5′,8a′-trimethyloctahydro-1′H-spiro[cyclopropane-1,2′-naphthalen]-1′-yl)ethylidene)dihydrofuran-2(3H)-one] |  |
|  | 51 to 100% | C=C1CC[C@@H]2[C@]3(C)COS(=O)O[C@@H]3CC[C@@]2(C)[C@@H]1C/C=C1\C(=O)OC[C@@H]1NC=O (stereo partly drawn) [Example 29, N-((3R,Z)-4-(2-((4aR,6aS,7R,10aS,10bR)-6a,10b-dimethyl-8-methylene-3-oxidodecahydro-1H-naphtho [2,1-d][1,3,2]dioxathiin-7-yl)ethylidene)-5-oxotetrahydrofuran-3-yl)formamide] |  |
|  | 51 to 100% | C=C1CC[C@@H]2[C@]3(C)COS(=O)O[C@@H]3CC[C@@]2(C)[C@@H]1C/C=C1/C(=O)OCC1NC=O (stereo partly drawn) [Example 19, N-((E)-4-(2-((4aR,6aS,7R,10aS,10bR)-6a,10b-dimethyl-8-methylene-3-oxidodecahydro-1H-naphtho[2,1-d][1,3,2]dioxathiin-7-yl)ethylidene)-5-oxotetrahydrofuran-3-yl)formamide] |  |
|  | 30 to 50% | CC1(C)CCC[C@@]2(C)[C@H]1CCC1(CC1)[C@@H]2CC/C=C1/C(=O)OC[C@H]1NS(C)(=O)=O [Example 37, N—((S,E)-5-oxo-4-(3-((1′S,4a′S,8a′S)-5′,5′,8a′-trimethyloctahydro-1′H-spiro[cyclopropane-1,2′-naphthalen]-1′-yl)propylidene)tetrahydrofuran-3-yl)methanesulfonamide] |  |
|  |  | C=C1CC[C@@H]2[C@]3(C)COS(=O)O[C@@H]3CC[C@@]2(C)[C@@H]1C/C=C1/C(=O)OC[C@H]1NC(=O)OC (single isomer, unassigned) [Example 30] | activation at 10 µM (6 hours): 51 to 100% |
| 500 to 2000 nM | 51 to 100% | C=C1CC[C@@H]2[C@@H](C)[C@@H](O)CC[C@@]2(C)[C@@H]1C/C=C1/C(=O)OC[C@H]1O [Example 1, (S,E)-4-hydroxy-3-(2-((1R,4aR,5R,6S,8aR)-6-hydroxy-5,8a-dimethyl-2-methylenedecahydronaphthalen-1-yl)ethylidene)dihydrofuran-2(3H)-one] |  |
| > 2000 nM | 51 to 100% | C=C1CC[C@@H]2[C@]3(C)COS(=O)O[C@@H]3CC[C@@]2(C)[C@@H]1C/C=C1/C(=O)OC[C@@H]1NC=O (stereo partly drawn) [Example 21, N-((3R,E)-4-(2-((4aR,6aS,7R,10aS,10bR)-6a,10b-dimethyl-8-methylene-3-oxidodecahydro-1H-naphtho[2,1-d][1,3,2]dioxathiin-7-yl)ethylidene)-5-oxotetrahydrofuran-3-yl)formamide] |  |
| > 2000 nM |  | C=C1CC[C@@H]2[C@]3(C)COCO[C@@H]3CC[C@@]2(C)[C@@H]1C/C=C1/C(=O)OCC1NC(C)=O (single isomer, unassigned) [Example 45A] |  |
| 500 to 2000 nM |  | C=C1CC[C@@H]2[C@@H](C)[C@](O)(C(F)(F)F)CC[C@@]2(C)[C@@H]1C/C=C1/C(=O)OCC1NC=O (single isomer, unassigned) [Example 44B] |  |

| SMILES | EC50 | activation at 10 µM (6 h) | other results |
| --- | --- | --- | --- |
| C=C1CC[C@@H]2[C@]3(C)COS(=O)O[C@@H]3CC[C@@]2(C)[C@@H]1C/C=C1/C(=O)OC[C@@H]1NC(=O)OC (single isomer, unassigned) [Example 31] | 500 to 2000 nM |  | activation at 10 µM (6 hours): > 100% |
